According to BigSolDB 2.1:

Details: in n-octanol

solubility (mole fraction) (293.15 K) | solubility (mole fraction) (298.15 K) | solubility (mole fraction) (303.15 K) | solubility (mole fraction) (308.15 K) | solubility (mole fraction) (313.15 K) | solubility (mole fraction) (318.15 K) | solubility (mole fraction) (323.15 K) | solubility (mole fraction) (328.15 K) | solubility (mole fraction) (333.15 K) | SMILES
5.17e-05 | 6.62e-05 | 8.54e-05 | 0.000108 | 0.00014 | 0.000177 | 0.000224 | 0.000284 | 0.000352 | CCn1cc(C(=O)O)c(=O)c2cc(F)c(N3CCNCC3)cc21
2.17e-06 | 2.76e-06 | 3.55e-06 | 4.58e-06 | 5.88e-06 | 7.63e-06 | 9.91e-06 | 1.3e-05 | 1.68e-05 | CCn1cc(C(=O)O)c(=O)c2cc(F)c(N3CCNC(C)C3)c(F)c21 (configuration not stated)
9.14e-07 | 1.2e-06 | 1.57e-06 | 2.03e-06 | 2.6e-06 | 3.25e-06 | 4.05e-06 | 4.97e-06 | 6.02e-06 | CCn1cc(C(=O)O)c(=O)c2cnc(N3CCNCC3)nc21
